Assay results published in US20250276983A1, “COMPOUNDS AND METHODS FOR MODULATING HER2” (IAMBIC THERAPEUTICS, INC., priority 2022, published 2025).
Like-named read-outs stand apart in the source and are kept apart here.

How the values were obtained:
Assay type in all cases: cell-based
BaF3_HER2YVMA cells = assay: Cell growth inhibition assay, BaF3_HER2YVMA; conditions: BaF3_HER2YVMA cells, 3 days treatment, CellTiterGlo 2.0, read-out: HER2-YVMA IC50 (nM), cell growth inhibition
BaF3_EGFRWT cells = assay: Cell growth inhibition assay, BaF3_EGFRWT; conditions: 80 ng/mL recombinant human EGF, 3 days treatment, CellTiterGlo 2.0, read-out: EGFR WT IC50 (nM), cell growth inhibition
BaF3_HER2WT cells = assay: Cell growth inhibition assay, BaF3_HER2WT; conditions: 3 days treatment, CellTiterGlo 2.0, read-out: HER2 WT IC50 (nM), cell growth inhibition

Row | Compound | IC50 (BaF3_HER2YVMA cells; 72 h) | IC50 (BaF3_EGFRWT cells; 72 h) | IC50 (BaF3_HER2WT cells; 72 h) | IC50 (BaF3_HER2YVMA cells) | IC50 (BaF3_EGFRWT cells) | IC50 (BaF3_HER2WT cells)
1 | C=CC(=O)N1C[C@H]2C[C@@H]1C[C@H]2c1ccn2ncnc(Nc3ccc(Oc4ccn5ncnc5c4)c(C)c3)c12 (relative stereo) [Example 104, Rel-1-[(1S,4S,5R)-5-{4-[(3-methyl-4-{[1,2,4]triazolo[1,5-a]pyridin-7-yloxy}phenyl)amino]pyrrolo[2,1-f][1,2,4]triazin-5-yl}]-2-azabicyclo[2.2.1]heptan-2-yl]prop-2-en-1-one] | 1500 to 5000 nM | 1500 to 5000 nM | 500 to 1500 nM | – | – | –
2 | Cc1cc(Nc2ncnn3ccc(C4CCN(C(=O)/C=C/CN(C)C)C4)c23)ccc1Oc1ccn2ncnc2c1 (single isomer, unassigned) [Examples 99 and 100, first eluting isomer, (E)-1-(3-(4-((4-([1,2,4]triazolo[1,5-a]pyridin-7-yloxy)-3-methylphenyl)amino)pyrrolo[2,1-f][1,2,4]triazin-5-yl)pyrrolidin-1-yl)-4-(dimethylamino)but-2-en-1-one] | – | 1500 to 5000 nM | < 200 nM | < 200 nM | – | –
3 | Cc1cc(Nc2ncnn3ccc(C4CCN(C(=O)/C=C/CN(C)C)C4)c23)ccc1Oc1ccn2ncnc2c1 (single isomer, unassigned) [Examples 99 and 100, second eluting isomer, (E)-1-(3-(4-((4-([1,2,4]triazolo[1,5-a]pyridin-7-yloxy)-3-methylphenyl)amino)pyrrolo[2,1-f][1,2,4]triazin-5-yl)pyrrolidin-1-yl)-4-(dimethylamino)but-2-en-1-one] | – | – | – | 500 to 1500 nM | 1500 to 5000 nM | < 200 nM
4 | Cc1cc(Nc2ncnn3ccc(C4CC5CCC(C4)N5C(=O)/C=C/CN(C)C)c23)ccc1Oc1ccn2ncnc2c1 (single isomer, unassigned) [Examples 122 and 123, first eluting isomer, (E)-1-(-3-(4-((4-([1,2,4]triazolo[1,5-a]pyridin-7-yloxy)-3-methylphenyl)amino)pyrrolo[2,1-f][1,2,4]triazin-5-yl)-8-azabicyclo[3.2.1]octan-8-yl)-4-(dimethylamino)but-2-en-1-one] | < 200 nM | – | < 200 nM | – | 500 to 1500 nM | –
5 | Cc1cc(Nc2ncnn3ccc(C4CC5CCC(C4)N5C(=O)/C=C/CN(C)C)c23)ccc1Oc1ccn2ncnc2c1 (single isomer, unassigned) [Examples 122 and 123, second eluting isomer, (E)-1-(3-(4-((4-([1,2,4]triazolo[1,5-a]pyridin-7-yloxy)-3-methylphenyl)amino)pyrrolo[2,1-f][1,2,4]triazin-5-yl)-8-azabicyclo[3.2.1]octan-8-yl)-4-(dimethylamino)but-2-en-1-one] | – | – | – | 200 to 500 nM | 1500 to 5000 nM | < 200 nM
6 | C=CC(=O)N1C2CCC1CC(c1ccn3ncnc(Nc4ccc(Oc5ccn6ncnc6c5)c(C)c4)c13)C2 (single isomer, unassigned) [Examples 124 and 125, first eluting isomer, 1-(3-(4-((4-([1,2,4]triazolo[1,5-a]pyridin-7-yloxy)-3-methylphenyl)amino)pyrrolo[2,1-f][1,2,4]triazin-5-yl)-8-azabicyclo[3.2.1]octan-8-yl)prop-2-en-1-one] | < 200 nM | < 200 nM | < 200 nM | – | – | –
7 | C=C(CN(C)C)C(=O)N1C2CCC1CC(c1ccn3ncnc(Nc4ccc(Oc5ccn6ncnc6c5)c(C)c4)c13)C2 (single isomer, unassigned) [Examples 126 and 127, first eluting isomer, 1-(3-(4-((4-([1,2,4]triazolo[1,5-a]pyridin-7-yloxy)-3-methylphenyl)amino)pyrrolo[2,1-f][1,2,4]triazin-5-yl)-8-azabicyclo[3.2.1]octan-8-yl)-2-((dimethylamino)methyl)prop-2-en-1-one] | – | 1500 to 5000 nM | < 200 nM | 200 to 500 nM | – | –
8 | C=C(CN(C)C)C(=O)N1C2CCC1CC(c1ccn3ncnc(Nc4ccc(Oc5ccn6ncnc6c5)c(C)c4)c13)C2 (single isomer, unassigned) [Examples 126 and 127, second eluting isomer, 1-(3-(4-((4-([1,2,4]triazolo[1,5-a]pyridin-7-yloxy)-3-methylphenyl)amino)pyrrolo[2,1-f][1,2,4]triazin-5-yl)-8-azabicyclo[3.2.1]octan-8-yl)-2-((dimethylamino)methyl)prop-2-en-1-one] | – | – | – | 500 to 1500 nM | 1500 to 5000 nM | < 200 nM
9 | Cc1cc(Nc2ncnn3ccc(C4CCN(C(=O)/C=C/CN(C)C)CC4)c23)ccc1Oc1ccn2ncnc2c1 [Example 21, (E)-1-(4-(4-((4-([1,2,4]triazolo[1,5-a]pyridin-7-yloxy)-3-methylphenyl)amino)pyrrolo[2,1-f][1,2,4]triazin-5-yl)piperidin-1-yl)-4-(dimethylamino)but-2-en-1-one] | – | 1500 to 5000 nM | – | – | – | –
10 | COC1CN(C/C=C/C(=O)N2CC(c3ccn4ncnc(Nc5ccc(Oc6ccn7ncnc7c6)c(C)c5)c34)C2)C1 [Example 39, (E)-1-(3-(4-((4-([1,2,4]triazolo[1,5-a]pyridin-7-yloxy)-3-methylphenyl)amino)pyrrolo[2,1-f][1,2,4]triazin-5-yl)azetidin-1-yl)-4-(3-methoxyazetidin-1-yl)but-2-en-1-one] | – | 1500 to 5000 nM | < 200 nM | – | – | –

Next, values leading:

Row | IC50 (BaF3_HER2YVMA cells; 72 h) | IC50 (BaF3_EGFRWT cells; 72 h) | IC50 (BaF3_HER2WT cells; 72 h) | IC50 (BaF3_HER2YVMA cells) | IC50 (BaF3_EGFRWT cells) | IC50 (BaF3_HER2WT cells) | Compound
11 | – | 1500 to 5000 nM | – | 500 to 1500 nM | – | < 200 nM | Cc1cc(Nc2ncnn3ccc(C4CCCN(C(=O)/C=C/CN(C)C)C4)c23)ccc1Oc1ccn2ncnc2c1 (single isomer, unassigned) [Examples 107 and 108, first eluting isomer, (E)-1-(3-(4-((4-([1,2,4]triazolo[1,5-a]pyridin-7-yloxy)-3-methylphenyl)amino)pyrrolo[2,1-f][1,2,4]triazin-5-yl)piperidin-1-yl)-4-(dimethylamino)but-2-en-1-one]
12 | – | – | – | 1500 to 5000 nM | 1500 to 5000 nM | 500 to 1500 nM | Cc1cc(Nc2ncnn3ccc(C4CCCN(C(=O)/C=C/CN(C)C)C4)c23)ccc1Oc1ccn2ncnc2c1 (single isomer, unassigned) [Examples 107 and 108, second eluting isomer, (E)-1-(3-(4-((4-([1,2,4]triazolo[1,5-a]pyridin-7-yloxy)-3-methylphenyl)amino)pyrrolo[2,1-f][1,2,4]triazin-5-yl)piperidin-1-yl)-4-(dimethylamino)but-2-en-1-one]
13 | < 200 nM | 1500 to 5000 nM | < 200 nM | – | – | – | Cc1cc(Nc2ncnn3ccc(C4CCCN(C(=O)/C=C/CN(C)C)CC4)c23)ccc1Oc1ccn2ncnc2c1 (single isomer, unassigned) [Examples 109 and 110, first eluting isomer, (E)-1-(4-(4-((4-([1,2,4]triazolo[1,5-a]pyridin-7-yloxy)-3-methylphenyl)amino)pyrrolo[2,1-f][1,2,4]triazin-5-yl)azepan-1-yl)-4-(dimethylamino)but-2-en-1-one]
14 | – | – | – | – | 1500 to 5000 nM | – | Cc1cc(Nc2ncnn3ccc(C4CCCN(C(=O)/C=C/CN(C)C)CC4)c23)ccc1Oc1ccn2ncnc2c1 (single isomer, unassigned) [Examples 109 and 110, second eluting isomer, (E)-1-(4-(4-((4-([1,2,4]triazolo[1,5-a]pyridin-7-yloxy)-3-methylphenyl)amino)pyrrolo[2,1-f][1,2,4]triazin-5-yl)azepan-1-yl)-4-(dimethylamino)but-2-en-1-one]
15 | < 200 nM | 1500 to 5000 nM | < 200 nM | – | – | – | C=CC(=O)N1CCCC(c2ccn3ncnc(Nc4ccc(Oc5ccn6ncnc6c5)c(C)c4)c23)CC1 (single isomer, unassigned) [Examples 111 and 112, first eluting isomer, 1-(4-(4-((4-([1,2,4]triazolo[1,5-a]pyridin-7-yloxy)-3-methylphenyl)amino)pyrrolo-[2,1-f][1,2,4]triazin-5-yl)azepan-1-yl)prop-2-en-1-one]
16 | – | – | – | < 200 nM | 1500 to 5000 nM | – | C=CC(=O)N1CCCC(c2ccn3ncnc(Nc4ccc(Oc5ccn6ncnc6c5)c(C)c4)c23)CC1 (single isomer, unassigned) [Examples 111 and 112, second eluting isomer, 1-(4-(4-((4-([1,2,4]triazolo[1,5-a]pyridin-7-yloxy)-3-methylphenyl)amino)pyrrolo-[2,1-f][1,2,4]triazin-5-yl)azepan-1-yl)prop-2-en-1-one]
17 | < 200 nM | – | < 200 nM | – | 1500 to 5000 nM | – | C=C(CN(C)C)C(=O)N1CC2CCC1CC2c1ccn2ncnc(Nc3ccc(Oc4ccn5ncnc5c4)c(C)c3)c12 (single isomer, unassigned) [Examples 135 and 136, first eluting isomer, 1-(5-(4-((4-([1,2,4]triazolo[1,5-a]pyridin-7-yloxy)-3-methylphenyl)amino)pyrrolo[2,1-f][1,2,4]triazin-5-yl)-2-azabicyclo[2.2.2]octan-2-yl)-2-((dimethylamino)methyl)prop-2-en-1-one]
18 | – | – | – | 200 to 500 nM | < 200 nM | < 200 nM | C=C(CN(C)C)C(=O)N1CC2CCC1CC2c1ccn2ncnc(Nc3ccc(Oc4ccn5ncnc5c4)c(C)c3)c12 (single isomer, unassigned) [Examples 135 and 136, second eluting isomer, 1-(5-(4-((4-([1,2,4]triazolo[1,5-a]pyridin-7-yloxy)-3-methylphenyl)amino)pyrrolo[2,1-f][1,2,4]triazin-5-yl)-2-azabicyclo[2.2.2]octan-2-yl)-2-((dimethylamino)methyl)prop-2-en-1-one]
